Measured values as given in PMC7489219 (Molecular Brain, 2020).
Structures can show the parent of a compound that is named as a salt.

test system: T1, primary mouse cortical neurons; assay: cells; set-up: Protection from NMDA-induced (30 uM, 10 min) neuronal death; Hoechst nuclear morphology by automated microscopy; details: Cortical neurone, 20 h, read-out: % inhibition, inhibition of NMDA-induced cell death (protection score), 30 min pre-treatment
T1 construct: primary cortical neurons, DIV 10
Procedure: On DIV 10, compounds were applied to the cells reaching an end concentration of 10 μM. Cells were incubated for 30 min at 37 °C, 5% CO2 before adding NMDA (30 μM). Cells were incubated for another 10 min in the incubator, then washed twice with defined minimal medium containing 10 μM of the respective compound and incubated for an additional 20 h before readout. Untreated (no NMDA) and NMDA-only stimulated wells were treated with 0.1% DMSO. […] After 15 min of incubation at room temperature, cells were washed twice with phosphate buffered saline. […] Dead neurons were identified by amorphous or shrunken nuclei using CellProfiler and CellProfiler Analyst software. For all cell death analyses the experimental unit (N) is defined as an independent experiment using an independent neuronal preparation. For each independent experiment, data from 3 replicate wells (i.e., from 36 images), representing an average of 3000 cells was analyzed per condition. The survival rate S was calculated by dividing the number of living cells by the total number of cells. The survival rate was then used to calculate the protection score according to Scompound−Svehicle/Suntreated−Svehicle×100=%protection , where ‘compound’ refers to compound + NMDA treatment, ‘vehicle’ refers to vehicle + NMDA treatment, and ‘untreated’ refers to DMSO control. […] As a proof of principle, we next used our assay to screen two commercially available drug libraries. In these screens, primary cortical cells were incubated with test compounds at 10 μM concentration for 30 min before addition of 30 μM NMDA. After 10 min NMDA treatment, cells were washed with fresh medium and kept in the presence of test compounds for 20 h until assessment of cell viability. […] This library covers structurally diverse drugs from several fields such as oncology, cardiology, immunology, and neurology/psychiatry.

Structure (SMILES)	inhibition at 10 µM
CCCCCCOC(=O)NC(=N)c1ccc(NCc2nc3cc(C(=O)N(CCC(=O)OCC)c4ccccn4)ccc3n2C)cc1 [BIBR-1048 (Dabigatran)]	0.466%
O=c1cc(-c2ccccc2)oc2cc(O)c(O)c(O)c12 [Baicalein]	-2.71%
O=C(O)[C@H]1O[C@@H](Oc2cc3oc(-c4ccccc4)cc(=O)c3c(O)c2O)[C@H](O)[C@@H](O)[C@@H]1O [Baicalin]	-3.47%
CCOC(=O)[C@H](CCc1ccccc1)N[C@H]1CCc2ccccc2N(CC(=O)O)C1=O [Benazepril hydrochloride]	-11.1%
Cn1c(CCCC(=O)O)nc2cc(N(CCCl)CCCl)ccc21 [Bendamustine HCL]	9.61%
NC(CO)C(=O)NNCc1ccc(O)c(O)c1O (stereo not drawn) [Benserazide]	6.78%
COc1ccc2cc3[n+](cc2c1OC)CCc1cc2c(cc1-3)OCO2 [Berberine Hydrochloride]	-2.08%
COc1c(O)cc2c(c1O)[C@@H]1O[C@H](CO)[C@@H](O)[C@H](O)[C@H]1OC2=O [Bergenin (Cuscutin)]	1.66%
CCC(=O)OCC(=O)[C@@]1(OC(=O)CC)[C@@H](C)C[C@H]2[C@@H]3CCC4=CC(=O)C=C[C@]4(C)[C@@]3(F)[C@@H](O)C[C@@]21C [Betamethasone dipropionate]	6.47%
CCCCC(=O)O[C@]1(C(=O)CO)[C@@H](C)C[C@H]2[C@@H]3CCC4=CC(=O)C=C[C@]4(C)[C@@]3(F)[C@@H](O)C[C@@]21C [Betamethasone valerate (Betnovate)]	6.58%
C[C@H]1C[C@H]2[C@@H]3CCC4=CC(=O)C=C[C@]4(C)[C@H]3C(=O)C[C@]2(C)[C@@]1(O)C(=O)CO [Betapar (Meprednisone)]	11.6%
CC(C[N+](C)(C)C)OC(N)=O (stereo not drawn) [Bethanechol chloride]	-1.35%
C[C@@H](O)[C@H]1C(=O)N2C(C(=O)[O-])=C(SC3Cn4cnc[n+]4C3)[C@H](C)[C@H]12 (stereo partly drawn) [Biapenem]	3.3%
CC(O)(CS(=O)(=O)c1ccc(F)cc1)C(=O)Nc1ccc(C#N)c(C(F)(F)F)c1 (stereo not drawn) [Bicalutamide (Casodex)]	-3.38%
CCNC(=O)CCC/C=C\C[C@@H]1[C@@H](/C=C/[C@@H](O)CCc2ccccc2)[C@H](O)C[C@@H]1O [Bimatoprost]	9.97%
COc1ccc(-c2coc3cc(O)cc(O)c3c2=O)cc1 [Biochanin A (4-Methylgenistein)]	3%
CC(C)NCC(O)COc1ccc(COCCOC(C)C)cc1 (stereo not drawn) [Bisoprolol]	10%
Cc1c(N)nc([C@H](CC(N)=O)NC[C@H](N)C(N)=O)nc1C(=O)N[C@H](C(=O)N[C@H](C)[C@@H](O)[C@H](C)C(=O)N[C@H](C(=O)NCCc1nc(-c2nc(C(=O)NCCC[S+](C)C)cs2)cs1)[C@@H](C)O)[C@@H](O[C@@H]1O[C@@H](CO)[C@@H](O)[C@H](O)[C@@H]1O[C@H]1O[C@H](CO)[C@@H](O)[C@H](OC(N)=O)[C@@H]1O)c1cnc[nH]1 [Bleomycin sulfate]	-2.58%
CC(C)C[C@H](NC(=O)[C@H](Cc1ccccc1)NC(=O)c1cnccn1)B(O)O [Bortezomib (Velcade)]	-4.79%
CCCC1O[C@@H]2C[C@H]3[C@@H]4CCC5=CC(=O)C=C[C@]5(C)[C@H]4[C@@H](O)C[C@]3(C)[C@]2(C(=O)CO)O1 (stereo partly drawn) [Budesonide]	-9.49%

Structure (SMILES)	inhibition at 10 µM
CCCCNc1cc(C(=O)O)cc(S(N)(=O)=O)c1Oc1ccccc1 [Bumetanide]	-2.16%
CCCCN1CCCCC1C(=O)Nc1c(C)cccc1C (stereo not drawn) [Bupivacaine hydrochloride (Marcain)]	-1.92%
CS(=O)(=O)OCCCCOS(C)(=O)=O [Busulfan (Myleran, Busulfex)]	15.7%
CCCC[N+]1(C)[C@@H]2CC(OC(=O)[C@H](CO)c3ccccc3)C[C@H]1[C@@H]1O[C@@H]12 (stereo partly drawn) [Butylscopolamine bromide (Scopolamine butylbromide)]	5%
O=C(O)/C=C/c1ccc(O)c(O)c1 [Caffeic acid]	-2.37%
CC[C@@]1(O)C(=O)OCc2c1cc1n(c2=O)Cc2cc3ccccc3nc2-1 [Camptothecin]	-13.4%
CCOc1nc2cccc(C(=O)OC(C)OC(=O)OC3CCCCC3)c2n1Cc1ccc(-c2ccccc2-c2nn[nH]n2)cc1 (stereo not drawn) [Candesartan cilexetil (Atacand)]	7.42%
CCCCCOC(=O)Nc1nc(=O)n([C@@H]2O[C@H](C)[C@@H](O)[C@H]2O)cc1F [Capecitabine (Xeloda)]	3.74%
COc1cc(CNC(=O)CCCC/C=C/C(C)C)ccc1O [Capsaicin]	-2.28%
NC(=O)N1c2ccccc2C=Cc2ccccc21 [Carbamazepine (Carbatrol)]	2.33%
C[C@@](Cc1ccc(O)c(O)c1)(NN)C(=O)O [Carbidopa]	-2.32%
C=CC1=C(C(=O)O)N2C(=O)[C@@H](NC(=O)/C(=N\O)c3csc(N)n3)[C@H]2SC1 [Cefdinir (Omnicef)]	44.5%
CO/N=C(\C(=O)N[C@@H]1C(=O)N2C(C(=O)OCOC(=O)C(C)(C)C)=C(/C=C\c3scnc3C)CS[C@H]12)c1csc(N)n1 [Cefditoren pivoxil]	8.16%
Cc1ccc(-c2cc(C(F)(F)F)nn2-c2ccc(S(N)(=O)=O)cc2)cc1 [Celecoxib]	-7.05%
O=C(O)COCCN1CCN(C(c2ccccc2)c2ccc(Cl)cc2)CC1 (stereo not drawn) [Cetirizine Dihydrochloride]	-10.5%
C[C@H](CCC(=O)O)[C@H]1CC[C@H]2[C@@H]3[C@H](O)C[C@@H]4C[C@H](O)CC[C@]4(C)[C@H]3CC[C@]12C [Chenodeoxycholic acid]	-2.92%
O=C(N[C@H](CO)[C@H](O)c1ccc([N+](=O)[O-])cc1)C(Cl)Cl [Chloramphenicol (Chloromycetin)]	0.272%
O=C(/C=C/c1ccc(O)c(O)c1)O[C@@H]1C[C@](O)(C(=O)O)C[C@@H](O)[C@H]1O [Chlorogenic acid]	-2.16%
NS(=O)(=O)c1cc2c(cc1Cl)N=CNS2(=O)=O [Chlorothiazide]	31.3%
Oc1c(Cl)cc(Cl)c2cccnc12 [Chloroxine]	-4.86%

Structure (SMILES)	inhibition at 10 µM
CN(C)CCCN1c2ccccc2Sc2ccc(Cl)cc21 [Chlorpromazine (Sonazine)]	-4.78%
CN(C)CC/C=C1/c2ccccc2Sc2ccc(Cl)cc21 [Chlorprothixene]	-2.97%
O=c1cc(-c2ccccc2)oc2cc(O)cc(O)c12 [Chrysin]	-0.0506%
Cc1cc(O)c2c(c1)C(=O)c1cccc(O)c1C2=O [Chrysophanic acid (Chrysophanol)]	8.58%
COCCOC(=O)C1=C(C)NC(C)=C(C(=O)OC/C=C/c2ccccc2)C1c1cccc([N+](=O)[O-])c1 (stereo not drawn) [Cilnidipine]	-16%
O=C1CCc2cc(OCCCCc3nnnn3C3CCCCC3)ccc2N1 [Cilostazol]	-13.8%
CN/C(=N\CCSCc1nc[nH]c1C)NC#N [Cimetidine (Tagamet)]	-0.847%
C=C[C@H]1CN2CC[C@H]1C[C@H]2[C@H](O)c1ccnc2ccccc12 [Cinchonidine]	-3.04%
Nc1nc(Cl)nc2c1ncn2[C@H]1C[C@H](O)[C@@H](CO)O1 [Cladribine]	-1.65%
CC[C@H]1OC(=O)[C@H](C)[C@@H](O[C@H]2C[C@@](C)(OC)[C@@H](O)[C@H](C)O2)[C@H](C)[C@@H](O[C@@H]2O[C@H](C)C[C@H](N(C)C)[C@H]2O)[C@](C)(OC)C[C@@H](C)C(=O)[C@H](C)[C@@H](O)[C@]1(C)O [Clarithromycin (Biaxin, Klacid)]	-1.54%
CCC[C@@H]1C[C@@H](C(=O)N[C@@H]([C@H]2O[C@H](SC)[C@H](O)[C@@H](O)[C@H]2O)[C@H](C)Cl)N(C)C1 [Clindamycin hydrochloride (Dalacin)]	2.41%
Nc1nc(Cl)nc2c1ncn2[C@@H]1O[C@H](CO)[C@@H](O)[C@@H]1F [Clofarabine]	-10.2%
CCOC(=O)C(C)(C)Oc1ccc(Cl)cc1 [Clofibrate (Atromid-S)]	-1.89%
CCN(CC)CCOc1ccc(C(=C(Cl)c2ccccc2)c2ccccc2)cc1 [Clomifene citrate (Serophene)]	-1.18%
CN(C)CCCN1c2ccccc2CCc2ccc(Cl)cc21 [Clomipramine hydrochloride (Anafranil)]	-0.839%
Clc1cccc(Cl)c1NC1=NCCN1 [Clonidine hydrochloride (Catapres)]	-1.98%
COC(=O)[C@H](c1ccccc1Cl)N1CCc2sccc2C1 [Clopidogrel (Plavix)]	-12%
Nc1cc(C(Cl)=C(Cl)Cl)c(S(N)(=O)=O)cc1S(N)(=O)=O [Clorsulon]	-1.66%
Clc1ccccc1C(c1ccccc1)(c1ccccc1)n1ccnc1 [Clotrimazole (Canesten)]	-1.47%
Cc1onc(-c2ccccc2Cl)c1C(=O)N[C@@H]1C(=O)N2[C@@H]1SC(C)(C)[C@@H]2C(=O)O [Cloxacillin sodium (Cloxacap)]	0.144%
